Values quoted from earlier work in patent US20110305654A1, “ANHYDROUS PETROLEUM JELLY/ELASTOMER-FREE DEPIGMENTING COMPOSITIONS COMPRISING A SOLUBILIZED PHENOLIC COMPOUND” (Galderma Research & Development, priority 2008, published 2011).
Read-outs that look alike come from different tables or passages of the source.

Oc1ccc(O)cc1 [hydroquinone]
Irritation (10% concentrations): relatively high
Irritation (concentration of 2%): virtually nonexistent
Irritation (preparations with a 5% dose): reduces greatly
